Results on 15 molecules are retold here after PMC10538207, “Bioactive-Guided Phytochemical Investigations, In Vitro and In Silico Alpha-Glucosidase Inhibition of Two Vietnamese Medicinal Plants Dicranopteris linearis and Psychotria adenophylla” (Pharmaceuticals, 2023).

Experiment [1] has as its target T1, alpha-glucosidase (Saccharomyces cerevisiae, UniProt P53341).
T1 construct: purchased Sigma-Aldrich Co. (Saint Louis, MO, USA)
The experiment is described as follows: biochemical. Conditions: for Binding Affinity Exp: ΔGexp calculated from IC50, T=300 K. An excerpt: The conditions followed that of our previous report with small modifications.

For experiment [2], the system named is HepG2 cells. Conditions: read-out: hepatoprotective activity EC50; cited from earlier work.
Where [3] appears, read: isolated compounds, read-out: Alpha-glucosidase inhibition IC50 (isolated compounds).

Where two headings read alike, the source gives them in different places.

T1 sequence (P53341 whole entry): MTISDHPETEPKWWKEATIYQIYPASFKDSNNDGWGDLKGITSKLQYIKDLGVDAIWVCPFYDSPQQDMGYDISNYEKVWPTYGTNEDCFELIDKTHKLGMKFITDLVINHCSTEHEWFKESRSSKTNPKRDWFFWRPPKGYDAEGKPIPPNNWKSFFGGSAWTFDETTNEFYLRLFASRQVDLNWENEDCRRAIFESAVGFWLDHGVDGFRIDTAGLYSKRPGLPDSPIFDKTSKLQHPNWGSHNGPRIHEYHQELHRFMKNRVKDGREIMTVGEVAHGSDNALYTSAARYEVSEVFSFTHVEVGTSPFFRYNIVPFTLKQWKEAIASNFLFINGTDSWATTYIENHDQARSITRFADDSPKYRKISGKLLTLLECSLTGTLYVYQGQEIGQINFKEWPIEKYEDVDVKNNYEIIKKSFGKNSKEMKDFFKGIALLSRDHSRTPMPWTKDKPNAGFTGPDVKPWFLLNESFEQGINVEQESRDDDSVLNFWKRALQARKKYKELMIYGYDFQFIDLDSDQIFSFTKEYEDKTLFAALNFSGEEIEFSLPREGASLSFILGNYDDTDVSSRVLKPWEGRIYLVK

For `CC(C)(C)c1ccc(C(=O)c2ccc(C(C)(C)C)cc2C(C)(C)C)c(C(C)(C)C)c1` [DL4, 2,2′,4,4′-tetra-tert-butylbenzophenone], the IC50 in experiment [1] (setting [3]) was > 300 µM.

In the case of `CC[C@H](CC[C@@H](C)[C@H]1CC[C@H]2[C@@H]3CC=C4C[C@@H](O[C@@H]5O[C@H](CO)[C@@H](O)[C@H](O)[C@H]5O)CC[C@]4(C)[C@H]3CC[C@]12C)C(C)C` [DL2, daucosterol], the IC50 in experiment [1] (setting [3]) was > 300 µM.

Molecule `O=c1c(-c2ccc(O)cc2)coc2cc(O)ccc12` [DL6, daidzein] gave an IC50 in experiment [1] of 66.9 ± 1.7 µM.

For the molecule `COc1ccc(-c2oc3cc(O)c(OC)c(O)c3c(=O)c2OC)cc1OC` [DL9, bonanzin], in experiment [1] (setting [3]), the IC50 is > 300 µM.

As to `COc1cc(/C=C/C=O)ccc1O` [PA4, coniferyl aldehyde], in experiment [1] (setting [3]), the IC50 stood at 250 ± 11.4 µM.

With `Cc1cc(O)c2c(c1)C(=O)c1cccc(O)c1C2=O` [PA5, chrysophanol], in experiment [1], the midpoint of inhibition, the IC50, lay at 98.2 ± 2.2 µM and the “Binding Affinity Exp” value was -5.5 kcal/mol.

Molecule `O=c1c(O[C@@H]2O[C@H](CO)[C@@H](O)[C@H](O)[C@H]2O)c(-c2ccc(O)c(O)c2)oc2cc(O)cc(O)c12` [DL12, isoquercetin] gave an IC50 in experiment [1] of 99.8 ± 1.2 µM.

Turning to `O=Cc1ccc(CO)o1` [PA7, 5-hydroxymethylfurfural], in experiment [1] (setting [3]), the IC50 was > 300 µM.

As to `O=c1cc(-c2ccc(O)c(O)c2)oc2cc(O)cc(O)c12` [DL10, luteolin], the IC50 in experiment [1] (setting [3]) stood at 67.1 ± 1.2 µM.

For the molecule `COc1c(-c2ccc(O)c(O)c2)oc2cc(O)cc(O)c2c1=O` [PA1, 3-O-methylquercetin], the IC50 in experiment [1] (setting [3]) was > 300 µM.

In the case of `CC1(C)C[C@H](O)C[C@@](C)(O)/C(O)=C\C1=O` [DL5, chakyunglupulin B], in experiment [1] (setting [3]), the IC50 worked out at 82.2 ± 2.2 µM. Moreover, the “Binding Affinity Exp” value in experiment [1] is -5.6 kcal/mol.

As to `CC[C@H](CC[C@@H](C)[C@H]1CC[C@H]2[C@@H]3CC(O)C4=CC(=O)CC[C@]4(C)[C@H]3CC[C@]12C)C(C)C` (stereo partly drawn) [DL3, 6-hydroxystigmast-4-en-3-one], the IC50 in experiment [1] (setting [3]) was found to be 177 ± 3.6 µM. Further, in experiment [1], the “Binding Affinity Exp” value is -5.1 kcal/mol.

As to `COc1cc(/C=C/C(=O)NC(=O)c2ccc(O)c(OC)c2)ccc1O` [PA6, tribulusimide D], in experiment [2], the EC50 was 13.5 µM. In experiment [1] (setting [3]), the IC50 stood at 76.2 ± 2.9 µM. The “Binding Affinity Exp” value in experiment [1] was -5.7 kcal/mol.

As to `CC[C@H](CC[C@@H](C)[C@H]1CC[C@H]2[C@@H]3CC=C4C[C@@H](O)CC[C@]4(C)[C@H]3CC[C@]12C)C(C)C` [DL1, β-sitosterol], in experiment [1] (setting [3]), the IC50 is > 300 µM.

In the case of `COc1cc(-c2oc3cc(O)c(OC)c(O)c3c(=O)c2OC)ccc1O` [DL8, jaceidin], the IC50 in experiment [1] (setting [3]) worked out at 282 ± 9.2 µM. Further, the “Binding Affinity Exp” value in experiment [1] is -4.9 kcal/mol.
